From patent US20260042764A1, “COMPOSITIONS AND METHODS FOR INHIBITION OF KRAS” (TheRas, Inc., priority 2022, published 2026)

How the values were obtained:
[1] = target: T1, Avi-KRAS G12V (1-169) GppNHp/RAF1 RBD-3xFLAG (52-151) (Homo sapiens, UniProt P01116, G12V); assay: Raf1-KRAS G12V-GppNHP disruption HTRF assay (Biological Example 1); type: binding
T1 construct: Avi-KRAS G12V (1-169)
Procedure, shortened: (§1)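 HTRF PPI disruption; buffer 50 mM Tris pH 7.5, 100 mM NaCl, 5 mM MgCl2, 0.1% BSA, 0.01% Tween, 10% DMSO. Protein mix 1 h RT shaking, reagent mix 1 h RT shaking. Data as % activity vs DMSO (100%).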

[2] = target: T2, Avi-KRAS G12R (1-169) GppNHp/RAF1 RBD-3xFLAG (52-151) (Homo sapiens, UniProt P01116, G12R); assay: Raf1-KRAS G12R-GppNHP disruption HTRF assay (Biological Example 1); type: binding
T2 construct: Avi-KRAS G12R (1-169)
T2 sequence (P01116 1-169 isoform P01116-2 G12R): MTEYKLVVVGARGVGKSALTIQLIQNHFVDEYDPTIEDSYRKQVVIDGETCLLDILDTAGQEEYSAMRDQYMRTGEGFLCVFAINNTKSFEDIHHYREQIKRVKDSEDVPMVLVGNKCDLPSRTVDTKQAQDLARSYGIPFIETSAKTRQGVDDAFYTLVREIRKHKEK
Procedure, shortened: as §1

GP2d cells (KRAS G12D) = assay: Cell-based pERK HTRF assay in GP2d cell (Biological Example 2); conditions: GP2d (KRAS G12D) cells, pERK HTRF
Procedure, shortened: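 Treatment with test compounds lasted one hour in DMEM containing 10% FBS, with DMSO held at 0.25%. Dilution series: 9 points, half-log spacing, highest 1 μM or 100 nM. Lysates were incubated 4–24 h at room temperature with antibody mix, then HTRF was read at 320 nm excitation.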

SW620 cells (KRAS G12V) = assay: Cell-based pERK HTRF assay in SW620 cell (Biological Example 4); conditions: pERK HTRF
Procedure, shortened: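 In SW620 cells grown in RPMI with 10% FBS, a 4 h compound treatment (0.25% DMSO, 9-point curve from 1 μM) preceded lysis. Phospho-ERK levels were then read by time-resolved FRET at 615 nm emission.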

[3] = target: T3, Avi-KRAS WT (1-169) GppNHp/RAF1 RBD-3xFLAG (52-151) (Homo sapiens, UniProt P01116); assay: Raf1-KRAS WT-GppNHP disruption HTRF assay (Biological Example 1); type: binding
T3 construct: Avi-KRAS WT (1-169)
T3 sequence (P01116 1-169 isoform P01116-2): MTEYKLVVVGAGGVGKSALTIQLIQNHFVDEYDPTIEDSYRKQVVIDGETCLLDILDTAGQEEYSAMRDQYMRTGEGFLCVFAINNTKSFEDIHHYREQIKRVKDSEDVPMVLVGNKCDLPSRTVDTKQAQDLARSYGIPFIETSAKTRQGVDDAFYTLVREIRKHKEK
Procedure, shortened: as §1

[4] = target: T4, Avi-KRAS G12D (1-169) GppNHp/RAF1 RBD-3xFLAG (52-151) (Homo sapiens, UniProt P01116, G12D); assay: Raf1-KRAS G12D-GppNHP disruption HTRF assay (Biological Example 1); type: binding
T4 construct: Avi-KRAS G12D (1-169)
T4 sequence (P01116 1-169 isoform P01116-2 G12D): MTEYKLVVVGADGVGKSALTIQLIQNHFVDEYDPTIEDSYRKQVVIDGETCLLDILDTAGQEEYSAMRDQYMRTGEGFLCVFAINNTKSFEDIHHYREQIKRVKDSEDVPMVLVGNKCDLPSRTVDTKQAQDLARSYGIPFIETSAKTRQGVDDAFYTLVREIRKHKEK
Procedure, shortened: as §1

[5] = KRAS G12V, GppNHp-loaded, Table 11
[6] = KRAS G12R, GppNHp-loaded, Table 11
[7] = KRAS WT, GppNHp-loaded, Table 11
[8] = KRAS G12D, GppNHp-loaded, Table 11
[9] = Homo sapiens, SW-620, SW620 (KRAS G12V) cells

T1 sequence (P01116 1-169 isoform P01116-2 G12V): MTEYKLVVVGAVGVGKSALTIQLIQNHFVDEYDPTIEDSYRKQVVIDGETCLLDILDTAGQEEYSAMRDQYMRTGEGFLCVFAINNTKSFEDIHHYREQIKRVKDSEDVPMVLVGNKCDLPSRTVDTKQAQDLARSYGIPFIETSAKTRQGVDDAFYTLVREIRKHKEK

SMILES | IC50 [1, 5] [nM] | IC50 [2, 6] [nM] | IC50 (GP2d cells (KRAS G12D)) [nM] | IC50 (SW620 cells (KRAS G12V); SW620 (KRAS G12V) cells) [nM] | IC50 [3, 7] [nM] | IC50 [4, 8] [nM] | IC50 (SW620 cells (KRAS G12V); [9]) [nM] | IC50 ([1]; KRAS G12V-GppNHp/RAF1 RBD HTRF) [nM] | IC50 ([2]; KRAS G12R-GppNHp/RAF1 RBD HTRF) [nM] | IC50 ([3]; KRAS WT-GppNHp/RAF1 RBD HTRF) [nM] | IC50 ([4]; KRAS G12D-GppNHp/RAF1 RBD HTRF) [nM] | IC50 (GP2d cells (KRAS G12D); GP2d) [nM]
CC(=O)N1CC[C@@H](N(C)c2nc(OC[C@@]34CCCN3C[C@H](F)C4)nc3c(F)c(-c4ccc(F)c5sc(N)c(C#N)c45)c(C(F)(F)F)cc23)[C@H]1C (single isomer, unassigned) [Compound 192] | > 10000 | > 10000 | > 1000 | > 1000 | > 10000 | > 10000 | – | – | – | – | – | –
CC(=O)N1CC[C@H](N(C)c2nc(OC[C@@]34CCCN3C[C@H](F)C4)nc3c(F)c(-c4ccc(F)c5sc(N)c(C#N)c45)c(C(F)(F)F)cc23)[C@@H]1C (single isomer, unassigned) [Compound 194] | > 10000 | > 10000 | > 1000 | > 1000 | > 10000 | > 10000 | – | – | – | – | – | –
CC(=O)N1CC[C@H](N(C)c2nc(OC[C@@]34CCCN3C[C@H](F)C4)nc3c(F)c(-c4ccc(F)c5sc(N)c(C#N)c45)c(C(F)(F)F)cc23)[C@@H]1C (single isomer, unassigned) [Compound 195] | 1000 to 10000 | 1000 to 10000 | 100 to 1000 | 100 to 1000 | 1000 to 10000 | 1000 to 10000 | – | – | – | – | – | –
N#Cc1c(N)sc2c(F)ccc(-c3c(C(F)(F)F)cc4c(N5CC6CC(C5)O6)nc(OC[C@@]56CCCN5C[C@H](F)C6)nc4c3F)c12 (single isomer, unassigned) [Compound 276] | > 10000 | 1000 to 10000 | > 1000 | 100 to 1000 | 1000 to 10000 | 1000 to 10000 | – | – | – | – | – | –
N#Cc1c(N)sc2c(F)ccc(-c3c(C(F)(F)F)cc4c(N5CCS(=O)(=O)CC5)nc(OC[C@@]56CCCN5C[C@H](F)C6)nc4c3F)c12 [Compound 91] | 100 to 1000 | 100 to 1000 | – | – | 100 to 1000 | 100 to 1000 | < 100 | – | – | – | – | < 100
CC(=O)N1CC[C@@H](N(C)c2nc(OC[C@@]34CCCN3C[C@H](F)C4)nc3c(F)c(-c4ccc(F)c5sc(N)c(C#N)c45)c(C(F)(F)F)cc23)C1 [Compound 112] | 100 to 1000 | 100 to 1000 | – | – | 100 to 1000 | 100 to 1000 | < 100 | – | – | – | – | < 100
N#Cc1c(N)sc2c(F)ccc(-c3c(C(F)(F)F)cc4c(N5CCOC6CC65)nc(OC[C@@]56CCCN5C[C@H](F)C6)nc4c3F)c12 (stereo partly drawn) [Compound 148] | 100 to 1000 | 100 to 1000 | – | – | 100 to 1000 | 100 to 1000 | < 100 | – | – | – | – | < 100
CN(c1nc(OC[C@@]23CCCN2C[C@H](F)C3)nc2c(F)c(-c3ccc(F)c4sc(N)c(C#N)c34)c(C(F)(F)F)cc12)C1CC(F)(F)C1 [Compound 162] | 1000 to 10000 | 100 to 1000 | – | – | 100 to 1000 | 100 to 1000 | < 100 | – | – | – | – | < 100
CN(CC(F)(F)F)c1nc(OC[C@@]23CCCN2C[C@H](F)C3)nc2c(F)c(-c3ccc(F)c4sc(N)c(C#N)c34)c(C(F)(F)F)cc12 [Compound 165] | 100 to 1000 | 100 to 1000 | – | – | 100 to 1000 | 100 to 1000 | < 100 | – | – | – | – | < 100
COCCN(C)c1nc(OC[C@@]23CCCN2C[C@H](F)C3)nc2c(F)c(-c3ccc(F)c4sc(N)c(C#N)c34)c(C(F)(F)F)cc12 [Compound 167] | 100 to 1000 | 100 to 1000 | – | – | 100 to 1000 | 100 to 1000 | < 100 | – | – | – | – | < 100
CC(=O)N1C[C@@H](F)[C@H](N(C)c2nc(OC[C@@]34CCCN3C[C@H](F)C4)nc3c(F)c(-c4ccc(F)c5sc(N)c(C#N)c45)c(C(F)(F)F)cc23)C1 [Compound 186] | 100 to 1000 | 100 to 1000 | – | – | 100 to 1000 | 100 to 1000 | 100 to 1000 | – | – | – | – | < 100
CC(=O)N1C[C@@H](N(C)c2nc(OC[C@@]34CCCN3C[C@H](F)C4)nc3c(F)c(-c4ccc(F)c5sc(N)c(C#N)c45)c(C(F)(F)F)cc23)[C@@H](F)C1 [Compound 187] | 100 to 1000 | 100 to 1000 | – | – | 100 to 1000 | < 100 | < 100 | – | – | – | – | < 100

Further lines, results first:

IC50 [1, 5] [nM] | IC50 [2, 6] [nM] | IC50 (GP2d cells (KRAS G12D)) [nM] | IC50 (SW620 cells (KRAS G12V); SW620 (KRAS G12V) cells) [nM] | IC50 [3, 7] [nM] | IC50 [4, 8] [nM] | IC50 (SW620 cells (KRAS G12V); [9]) [nM] | IC50 ([1]; KRAS G12V-GppNHp/RAF1 RBD HTRF) [nM] | IC50 ([2]; KRAS G12R-GppNHp/RAF1 RBD HTRF) [nM] | IC50 ([3]; KRAS WT-GppNHp/RAF1 RBD HTRF) [nM] | IC50 ([4]; KRAS G12D-GppNHp/RAF1 RBD HTRF) [nM] | IC50 (GP2d cells (KRAS G12D); GP2d) [nM] | SMILES
100 to 1000 | < 100 | < 100 | – | < 100 | < 100 | < 100 | – | – | – | – | – | CCN(C)c1nc(OC[C@@]23CCCN2C[C@H](F)C3)nc2c(F)c(-c3ccc(F)c4sc(N)c(C#N)c34)c(C(F)(F)F)cc12 (single isomer, unassigned) [Compound 196]
> 10000 | > 10000 | > 1000 | > 1000 | > 10000 | > 10000 | – | – | – | – | – | – | N#Cc1c(N)sc2c(F)ccc(-c3c(C(F)(F)F)cc4c(N5CCOCC5)nc(OC[C@@]56CCCN5C[C@H](F)C6)nc4c3F)c12 (single isomer, unassigned) [Compound 199]
> 10000 | > 10000 | > 1000 | > 1000 | > 10000 | > 10000 | – | – | – | – | – | – | CN(c1nc(OC[C@@]23CCCN2C[C@H](F)C3)nc2c(F)c(-c3ccc(F)c4sc(N)c(C#N)c34)c(C(F)(F)F)cc12)[C@H]1CCS(=O)(=O)C1 (single isomer, unassigned) [Compound 220]
100 to 1000 | 100 to 1000 | < 100 | < 100 | 100 to 1000 | 100 to 1000 | – | – | – | – | – | – | CN(c1nc(OC[C@@]23CCCN2C[C@H](F)C3)nc2c(F)c(-c3ccc(F)c4sc(N)c(C#N)c34)c(C(F)(F)F)cc12)[C@H]1CCS(=O)(=O)C1 (single isomer, unassigned) [Compound 221]
– | – | 100 to 1000 | 100 to 1000 | – | – | – | > 10000 | > 10000 | > 10000 | > 10000 | – | N#Cc1c(N)sc2c(F)ccc(-c3c(C(F)(F)F)cc4c(N5C[C@H]6C[C@@H]5CO6)nc(OC[C@@]56CCCN5C[C@H](F)C6)nc4c3F)c12 (single isomer, unassigned) [Compound 288]
